In assay [1] the target is T1, Human immunodeficiency virus type 1 integrase (Human immunodeficiency virus 1, UniProt Q7ZJM1). Nature of the assay: (§1) Inhibitory concentration against Recombinant HIV-1 integrase (3'processing).
Assay [2] concerns the target T1, Human immunodeficiency virus type 1 integrase. Described as §1. This is another data set of the same source.
Assay [3] has the same target. Nature of the assay: (§2) Inhibitory concentration against Recombinant HIV-1 integrase (Standard transfer reaction).
In assay [4] the test system is MT4. The assay is described as follows: Antiviral potency was measured in HIV-1IIIb infected MT-4 human T-lymphoid cells. It is filed as functional, cell-based.
For assay [5], the system named is MT4. Nature of the assay: Cytotoxic concentration was measured against MT-4 human T-lymphoid cells. In kind it is functional.
Assay [6] has as its target T1, Human immunodeficiency virus type 1 integrase. Described as §2. This is another data set of the same source.

pIC50: −log10 of the molar value.

IC50 and CC50 data for twelve compounds are collected here from ChEMBL document CHEMBL1144971, “Azido-containing aryl beta-diketo acid HIV-1 integrase inhibitors” (Bioorg Med Chem Lett, 2003).

T1 sequence (Q7ZJM1 whole entry): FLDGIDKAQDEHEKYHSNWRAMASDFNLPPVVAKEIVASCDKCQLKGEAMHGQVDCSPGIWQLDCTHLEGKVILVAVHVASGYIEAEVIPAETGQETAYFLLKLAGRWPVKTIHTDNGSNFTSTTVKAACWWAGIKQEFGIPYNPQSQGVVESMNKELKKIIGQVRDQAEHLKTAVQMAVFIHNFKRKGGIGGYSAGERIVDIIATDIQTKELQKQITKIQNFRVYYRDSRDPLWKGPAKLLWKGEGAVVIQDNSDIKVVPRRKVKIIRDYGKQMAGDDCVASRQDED

On to `O=C(O)C(=O)CC(=O)c1cccc(OCc2ccccc2)c1`, for which the pIC50 (commonly −log10 of the IC50, conventionally taken in molar units) was 4.00 in assay [1], 4.07 in assay [2], 6.46 in assay [3] and 6.22 in the assay on MT4 [4].

Regarding `O=C(O)C(=O)CC(=O)c1cc(OCc2ccccc2)cc(OCc2ccccc2)c1`, the pIC50 in assay [2] is under 4.00; in assay [3] it was 6.32; with MT4 [4], 5.72. Further, the CC50 – broadly, the concentration giving 50% cytotoxicity – with MT4 [5] was over 50 µM.

For the compound `N#CCCc1cccc(C(=O)CC(=O)C(=O)O)c1`, the pIC50 in assay [6] was 5.82; in assay [2] it was under 4.00; in assay [3], 5.74; with MT4 [4], under 4.60.

In the case of `COc1ccc(CN=[N+]=[N-])cc1C(=O)CC(=O)C(=O)O`, in the assay on MT4 [4], the pIC50 is 4.87.

For `[N-]=[N+]=NCc1ccc(C(=O)CC(=O)C(=O)O)cc1CN=[N+]=[N-]`, the negative logarithm of the IC50 (pIC50) in assay [6] is 6.59; in assay [2], under 4.00; in assay [3], 6.82; in the assay on MT4 [4], 4.84. The same compound had a CC50 in the assay with MT4 [5] of over 50 µM.

In the case of `[N-]=[N+]=NCc1cccc(C(=O)CC(=O)C(=O)O)c1`, the pIC50 in assay [2] was under 4.00; in assay [3], 5.82; in the assay with MT4 [4] it was 5.68. The same compound yielded a CC50 with MT4 [5] of over 50 µM.

In the case of `[N-]=[N+]=NCc1ccc(C(=O)CC(=O)C(=O)O)cc1`, the negative-log IC50 (pIC50) in assay [6] was 5.21; in assay [2], under 4.00; in assay [3] it was 5.15; in the assay on MT4 [4], under 4.60.

In the case of `[N-]=[N+]=NC1CC(N=[N+]=[N-])c2cc(C(=O)CC(=O)C(=O)O)ccc21` (stereo not given), the pIC50 in assay [2] was under 4.00; in assay [3], 6.44; with MT4 [4], under 4.60.

Take `[N-]=[N+]=NCc1cc(CN=[N+]=[N-])cc(C(=O)CC(=O)C(=O)O)c1`: the negative logarithm of the IC50 (pIC50) in assay [6] is 5.55; in assay [2], under 4.00; in assay [3], 5.70; with MT4 [4], 5.30. The compound also had a CC50 in the assay on MT4 [5] of over 50 µM.

On to `COc1ccc(C(=O)CC(=O)C(=O)O)cc1CN=[N+]=[N-]`, for which the pIC50 in assay [6] was 5.07; in assay [2], under 4.00; in assay [3] it was 5.05; in the assay on MT4 [4], under 4.60.

Take `CC(C)Oc1ccc(CN=[N+]=[N-])cc1C(=O)CC(=O)C(=O)O`: the pIC50 was 4.60 in assay [6], under 4.00 in assay [2], 4.64 in assay [3] and 5.23 in the assay with MT4 [4].

As to `[N-]=[N+]=NC1CCC(N=[N+]=[N-])c2cc(C(=O)CC(=O)C(=O)O)ccc21` (stereo not given), the pIC50 in assay [2] was 4.15; in assay [3], 6.49; in the assay with MT4 [4], 4.81.
